Laboratory results from patent publication US6362188B1, “Farnesyl protein transferase inhibitors” (Schering Corporation, priority 1998, dated 2002).

Tested on: not given
Experiment: not given
Conditions: not given
`Cc1ncn(CC2CCCN(C(=O)C3CN(C4c5ccc(Cl)cc5CCc5cccnc54)CCN3C(=O)OC3CCCCC3)C2)c1C` (single isomer, unassigned) [47(H)] gave a melting point of 106 to 125 °C.
Work on `Cc1nccn1CC1CCCN(C(=O)C2CN(C3c4ccc(Cl)cc4CCc4cccnc43)CCN2C(=O)OC(C)C)C1` (single isomer, unassigned) [Example 39] yielded a melting point of 111 to 125 °C.
For `Cc1nccn1CC1CCCN(C(=O)C2CN(C3c4ccc(Cl)cc4CCc4cccnc43)CCN2C(=O)OC(C)C)C1` (single isomer, unassigned) [Example 40], the melting point was 107 to 112 °C.
`Cc1nccn1CC1CCCN(C(=O)C2CN(C3c4ccc(Cl)cc4CCc4cccnc43)CCN2C(=O)OC(C)C)C1` (single isomer, unassigned) [Example 41] gave a melting point of 95 to 100 °C.
Molecule `Cc1nccn1CC1CCCN(C(=O)C2CN(C3c4ccc(Cl)cc4CCc4cccnc43)CCN2C(=O)OC2CCCCC2)C1` (single isomer, unassigned) [Example 45] has a melting point of 108 to 123 °C.
In the case of `Cc1nccn1CC1CCCN(C(=O)C2CN(C3c4ccc(Cl)cc4CCc4cccnc43)CCN2C(=O)OC2CCCCC2)C1` (single isomer, unassigned) [Example 46], the melting point is reported as 91 to 94 °C.
In the case of `Cc1nccn1CC1CCCN(C(=O)C2CN(C3c4ccc(Cl)cc4CCc4cccnc43)CCN2C(=O)OC2CCCCC2)C1` (single isomer, unassigned) [Example 47], the melting point is reported as 100 to 106 °C.
In the case of `Cc1cn(CC2CCCN(C(=O)C3CN(C4c5ccccc5CCc5cc(Cl)cnc54)CCN3C(=O)OC(C)(C)C)C2)cn1` (single isomer, unassigned) [Example 293], the melting point is reported as 110 to 123 °C.
With `CCc1cn(CC2CCCN(C(=O)C3CN(C4c5ccc(Cl)cc5CCc5cccnc54)CCN3C(=O)OC(C)(C)C)C2)cn1` (stereo not drawn) [35(C)] the melting point was 104 to 106 °C.
With `CCc1cn(CC2CCCN(C(=O)C3CN(C4c5ccc(Cl)cc5CCc5cccnc54)CCN3C(=O)OC(C)(C)C)C2)cn1` (stereo not drawn) [35(D)] the melting point was 79 to 81 °C.
`Cc1cn(CC2CCCN(C(=O)C3CN(C4c5ccc(Cl)cc5CCc5cccnc54)CCN3C(=O)OC(C)C)C2)cn1` (stereo not drawn) [41(A)] showed a melting point of 117 to 120 °C.
`Cc1cn(CC2CCCN(C(=O)C3CN(C4c5ccc(Cl)cc5CCc5cccnc54)CCN3C(=O)OC(C)C)C2)cn1` (stereo not drawn) [41(B)] gave a melting point of 101 to 120 °C.
In the case of `Cc1cn(CC2CCCN(C(=O)C3CN(C4c5ccc(Cl)cc5CCc5cccnc54)CCN3C(=O)OC3CCCCC3)C2)cn1` (stereo not drawn) [47(A)], the melting point is reported as 122 to 127 °C.
`Cc1cn(CC2CCCN(C(=O)C3CN(C4c5ccc(Cl)cc5CCc5cccnc54)CCN3C(=O)OC3CCCCC3)C2)cn1` (stereo not drawn) [47(B)] gave a melting point of 133 to 139 °C.
With `Cc1cn(CC2CCCN(C(=O)C3CN(C4c5ccc(Cl)cc5CCc5cc(Br)cnc54)CCN3C(=O)OC(C)(C)C)C2)cn1` (stereo not drawn) [Example 4.2] the melting point was 131 to 135 °C.
`Cc1nccn1CC1CCCN(C(=O)C2CN(C3c4ccc(Cl)cc4CCc4cc(Br)cnc43)CCN2C(=O)OC(C)(C)C)C1` (stereo not drawn) [Example 4] gave a melting point of 128 to 133 °C.
For `CC(C)(C)OC(=O)N1CCN(C2c3ccc(Cl)cc3CCc3cc(Br)cnc32)CC1C(=O)N1CCS(=O)(=O)C(Cn2ccnc2)C1` (stereo not drawn) [Example 8], the melting point was 179 to 182 °C.
Molecule `CC(C)NC(=O)N1CCN([C@@H]2c3ccc(Cl)cc3CCc3cc(Br)cnc32)C[C@@H]1C(=O)N1CCC[C@@H](Cn2ccnc2)C1` [Example 17] has a melting point of 132 to 136 °C.
`CC(C)(C)NC(=O)N1CCN([C@@H]2c3ccc(Cl)cc3CCc3cc(Br)cnc32)C[C@@H]1C(=O)N1CCC[C@H](Cn2ccnc2)C1` [Example 18] gave a melting point of 112 to 120 °C.
`CC(C)OC(=O)N1CCN([C@@H]2c3ccc(Cl)cc3CCc3cc(Br)cnc32)C[C@@H]1C(=O)N1CCC[C@H](Cn2ccnc2)C1` [Example 19] gave a melting point of 123 to 132 °C.
In the case of `CC(C)(C)NC(=O)N1CCN(C2c3ccc(Cl)cc3CCc3cc(Br)cnc32)C[C@@H]1C(=O)N1CCC[C@@H]1Cn1ccnc1` (stereo partly drawn) [Example 21], the melting point is reported as 137 to 139 °C.
`CS(=O)(=O)N1CCN(C2c3ccc(Cl)cc3CCc3cc(Br)cnc32)C[C@@H]1C(=O)N1CCC[C@@H]1Cn1ccnc1` (stereo partly drawn) [Example 22] gave a melting point of 135 to 141 °C.
For `CC(C)(C)OC(=O)N1CCN(C2c3ccc(Cl)cc3CCc3cccnc32)CC1C(=O)N1CCCC(Cn2ccnc2)C1` (stereo not drawn) [Example 25], the melting point was 124 to 143 °C.
Molecule `Cc1cn(CC2CCCN(C(=O)C3CN(C4c5ccc(Cl)cc5CCc5cccnc54)CCN3C(=O)OC(C)C)C2)cn1` (stereo not drawn) [Example 36] has a melting point of 123 to 132 °C.
Work on `Cc1cn(CC2CCCN(C(=O)C3CN(C4c5ccc(Cl)cc5CCc5cccnc54)CCN3C(=O)OC(C)C)C2)cn1` (stereo not drawn) [Example 37] yielded a melting point of 95 to 111 °C.
Work on `Cc1cn(CC2CCCN(C(=O)C3CN(C4c5ccc(Cl)cc5CCc5cccnc54)CCN3C(=O)OC3CCCCC3)C2)cn1` (stereo not drawn) [Example 42] yielded a melting point of 99 to 113 °C.
With `Cc1cn(CC2CCCN(C(=O)C3CN(C4c5ccc(Cl)cc5CCc5cccnc54)CCN3C(=O)OC3CCCCC3)C2)cn1` (stereo not drawn) [Example 43] the melting point was 108 to 118 °C.

Tested on: Human tumor cells
Experiment: Soft Agar Assay (anchorage-independent growth)
Type: cell-based
Conditions: colony outgrowth in soft agar, stated as a range for the group
Protocol: Anchorage-independent growth is a characteristic of tumorigenic cell lines. Human tumor cells can be suspended in growth medium containing 0.3% agarose and an indicated concentration of a farnesyl transferase inhibitor. The solution can be overlayed onto growth medium solidified with 0.6% agarose containing the same concentration of farnesyl transferase inhibitor as the top layer. After the top layer is solidified, plates can be incubated for 10-16 days at 37° C. under 5% CO2 to allow colony outgrowth. After incubation, the colonies can be stained by overlaying the agar with a solution of MTT (3-[4,5-dimethyl-thiazol-2-yl]-2,5-diphenyltetrazolium bromide, Thiazolyl blue) (1 mg/mL in PBS). Colonies can be counted and the IC50's can be determined.
`Cc1nc(C)n(C[C@H]2CCCN(C(=O)[C@H]3CN([C@H]4c5ccc(Cl)cc5CCc5cc(Br)cnc54)CCN3C(=O)OC3CCCCC3)C2)c1C` [Example 214] showed an IC50 of 0.05 to 30 nM.
In the case of `Cc1cn(CC[C@H]2CCCN2C(=O)[C@H]2CN(C3c4ccc(Cl)cc4CCc4cc(Br)cnc43)CCN2C(=O)OC2CCCCC2)cn1` (stereo partly drawn) [Example 215], the IC50 is reported as 0.05 to 30 nM.
For `Cc1cn(CC[C@@H]2CCCN2C(=O)[C@H]2CN(C3c4ccc(Cl)cc4CCc4cc(Br)cnc43)CCN2C(=O)OC2CCCCC2)cn1` (stereo partly drawn) [Example 216], the IC50 was 0.05 to 30 nM.
`Cc1cn(C[C@@H]2CCCN(C(=O)[C@H]3CN([C@@H]4c5ccc(Cl)cc5CCc5cc(Cl)cnc54)CCN3C(=O)OC(C)C)C2)cn1` [Example 231] showed an IC50 of 0.05 to 30 nM.
In the case of `Cc1cn(C[C@@H]2CCCN(C(=O)[C@H]3CN([C@H]4c5ccc(Cl)cc5CCc5cc(Cl)cnc54)CCN3C(=O)OC(C)C)C2)cn1` [Example 232], the IC50 is reported as 0.05 to 30 nM.
For `Cc1cn(CC2CCCN(C(=O)C3CN(C4c5ccc(Cl)cc5CCc5cc(Cl)cnc54)CCN3C(=O)OCC(C)(C)C)C2)cn1` (stereo not drawn) [Example 233], the IC50 was 0.05 to 30 nM.
`Cc1cn(C[C@@H]2CCCN(C(=O)[C@H]3CN([C@H]4c5ccc(Cl)cc5CCc5cc(Cl)cnc54)CCN3C(=O)OCC(C)(C)C)C2)cn1` [Example 234] showed an IC50 of 0.05 to 30 nM.
`Cc1cn(C[C@@H]2CCCN(C(=O)[C@H]3CN([C@H]4c5ccc(Cl)cc5CCc5cc(Cl)cnc54)CCN3C(=O)NC(C)(C)C)C2)cn1` [Example 238] gave an IC50 of 0.05 to 30 nM.
`Cc1cn(C[C@@H]2CCCN(C(=O)[C@H]3CN([C@@H]4c5ccc(Cl)cc5CCc5cc(Cl)cnc54)CCN3C(=O)C(C)(C)C)C2)cn1` [Example 239] gave an IC50 of 0.05 to 30 nM.
For `Cc1cn(C[C@@H]2CCCN(C(=O)[C@H]3CN([C@H]4c5ccc(Cl)cc5CCc5cc(Cl)cnc54)CCN3C(=O)C(C)(C)C)C2)cn1` [Example 240], the IC50 was 0.05 to 30 nM.
`Cc1cn(C[C@H]2CCCN(C(=O)[C@H]3CN([C@@H]4c5ccc(Cl)cc5CCc5cc(Cl)cnc54)CCN3C(=O)OCC(C)(C)C)C2)cn1` [Example 245] showed an IC50 of 0.05 to 30 nM.
Work on `Cc1cn(C[C@@H]2CCCN(C(=O)[C@H]3CN([C@@H]4c5ccccc5CCc5cc(Cl)cnc54)CCN3C(=O)OCC(C)(C)C)C2)cn1` [Example 297] yielded an IC50 of 0.05 to 30 nM.
`Cc1cn(CC2CCCN(C(=O)C3CN(C4c5ccccc5CCc5cc(Cl)cnc54)CCN3C(=O)OCC(C)(C)C)C2)cn1` (stereo not drawn) [Example 298] showed an IC50 of 0.05 to 30 nM.
Work on `Cc1cn(C[C@@H]2CCCN(C(=O)[C@H]3CN([C@@H]4c5ccccc5CCc5cc(Cl)cnc54)CCN3C(=O)OCC3CC3)C2)cn1` [Example 299] yielded an IC50 of 0.05 to 30 nM.
For `Cc1cn(CC2CCCN(C(=O)C3CN(C4c5ccccc5CCc5cc(Cl)cnc54)CCN3C(=O)OCC3CC3)C2)cn1` (stereo not drawn) [Example 300], the IC50 was 0.05 to 30 nM.
`Cc1cn(C[C@@H]2CCCN(C(=O)[C@H]3CN([C@@H]4c5ccccc5CCc5cc(Cl)cnc54)CCN3C(=O)NC(C)(C)C)C2)cn1` [Example 301] gave an IC50 of 0.05 to 30 nM.
With `Cc1cn(C[C@@H]2CCCN(C(=O)[C@H]3CN([C@H]4c5ccccc5CCc5cc(Cl)cnc54)CCN3C(=O)NC(C)(C)C)C2)cn1` [Example 302] the IC50 was 0.05 to 30 nM.
Work on `Cc1cn(C[C@@H]2CCCN(C(=O)[C@H]3CN([C@@H]4c5ccccc5CCc5cc(Cl)cnc54)CCN3C(=O)C(C)(C)C)C2)cn1` [Example 303] yielded an IC50 of 0.05 to 30 nM.
With `Cc1cn(C[C@H]2CCCN(C(=O)[C@H]3CN([C@H]4c5ccccc5CCc5cc(Cl)cnc54)CCN3C(=O)C(C)(C)C)C2)cn1` [Example 316] the IC50 was 0.05 to 30 nM.
Molecule `Cc1cn(C[C@H]2CCCN(C(=O)[C@H]3CN([C@@H]4c5ccccc5CCc5cc(Cl)cnc54)CCN3C(=O)NC3CCCCC3)C2)cn1` [Example 317] has an IC50 of 0.05 to 30 nM.
`Cc1cn(C[C@H]2CCCN(C(=O)[C@H]3CN([C@H]4c5ccccc5CCc5cc(Cl)cnc54)CCN3C(=O)NC3CCCCC3)C2)cn1` [Example 318] gave an IC50 of 0.05 to 30 nM.
For `Cc1cn(CC2CCCN(C(=O)C3CN(C4c5ncccc5CCc5cccc(Cl)c54)CCN3C(=O)OC(C)(C)C)C2)cn1` (stereo not drawn) [Example 394], the IC50 was 0.05 to 30 nM.
For `Cc1nccn1CC1CCCN(C(=O)C2CN(C3c4ncccc4CCc4cccc(Cl)c43)CCN2C(=O)OC(C)(C)C)C1` (stereo not drawn) [Example 395], the IC50 was 0.05 to 30 nM.
In the case of `CC1(Cn2ccnc2)CCCN(C(=O)[C@H]2CN([C@H]3c4ccc(Cl)cc4CCc4cccnc43)CCN2C(=O)OC2CCCCC2)C1` (stereo partly drawn) [Example 415], the IC50 is reported as 0.05 to 30 nM.
With `Cc1cn(C[C@@]2(C)CCCN(C(=O)[C@H]3CN([C@H]4c5ccc(Cl)cc5CCc5cccnc54)CCN3C(=O)OC3CCCCC3)C2)cn1` [Example 416] the IC50 was 0.05 to 30 nM.
For `Cc1cn(C[C@]2(C)CCCN(C(=O)[C@H]3CN([C@H]4c5ccc(Cl)cc5CCc5cccnc54)CCN3C(=O)OC3CCCCC3)C2)cn1` [Example 417], the IC50 was 0.05 to 30 nM.
`CC1CCC(Cn2ccnc2)CN1C(=O)[C@H]1CN([C@H]2c3ccc(Cl)cc3CCc3cccnc32)CCN1C(=O)OC1CCCCC1` (stereo partly drawn) [Example 424] showed an IC50 of 0.05 to 30 nM.
